From patent US20010053772A1, “Aza analogues of alkyl lysophospholipids exert immunomodulatory effects” (priority 2000, published 2001)

Key:
TNF-α [1] = conditions: cited from earlier work
TNF-α [2] = assay: TNF-α secretion by human PBM, ELISA of supernatants; assay type: cell-based; conditions: for effect on BN52207 induced secretion of TNF-α: PBM 18 hours with BN52207 (5 μg/ml), emetine (1 μg/ml), cycloheximide (5 μg/ml)
Protocol: Also referring to FIG. 2, the AALP analogues, are therein shown to have immunoregulatory properties. The effect of AALP on the secretion of TNF-α, IL-1β, IL-6, and IL-10 cytokines by both resting and LPS and IFN-γ activated human peripheral blood derived monocytes. Human PBM were incubated for 18 hours at 37° C. in the absence or in the presence of different concentrations of AALP analogues. The cell-free supernatants were harvested and clarified by centrifugation and assessed for the presence of TNF-α, IL-1β, and IL-6 by Enzyme Linked Immunosorbant Assay (ELISA). For TNF-α, there was stimulation of secretion by all compounds at concentrations >0.6 μg/ml and up to 10 μg/ml. […] Similar findings were also obtained for IL-1β. There was no significant difference in the levels of stimulated TNF-α and IL-1β among the five AALP compounds. In contrast to TNF-α and IL-1β, there was no significant stimulation of IL-6 above background levels upon stimulation by any of the five AALP analogues. However, there was significant inhibition of IL-6 secretion at 10 μg/ml and the levels were below the spontaneous secretion of IL-6.
As a result of the similarity of results of the five AALP on PBM, BN52207 was selected to conduct the following experiments. However, it is to be understood that any other AALP analogue may be used to obtain a similar result. Now referring to FIG. 3, human PBM were incubated for 18 hours at 37° C. in the presence or absence of different concentration of BN52207. The PBM were left untreated or treated with IFN-γ (500 U/ml) or LPS (1 μg/ml) added at the initiation of the culture. The supernatants were harvested, clarified by centrifugation, and stored at −70° C. The levels of TNF-α with IFN-γ (FIG. 3A), LPS (FIG. 3B), or BN+LPS (FIG. 3C) activated PBM were assessed by ELISA.
BN52207 potentiated the secretion of TNF-α from IFN-γ-activated PBM and LPS-activated PBM. […] Now referring to FIG. 4, to confirm de novo synthesis of TNF-α mRNA PBM were treated with protein synthesis inhibitors. PBM were incubated for 18 hours with BN52207 (5 μg/ml) in the absence or presence of LPS (1 μg/ml), LPS (1 μg/ml) plus pentoxifylline (50 μg/ml), emetine (1 μg/ml), and cycloheximide (5 μg/ml). The cell-free supernatants were collected and clarified by centrifugation and the level of TNF-α in the supernatants was assessed by ELISA.
Now referring to FIGS. 8 A, B, and C, the kinetics of induction/inhibition of cytokine secretion by AALP were examined. […]
Human peripheral blood was obtained from normal volunteers as per HSPC guidelines of UCLA. […] The adherent cells prepared by this procedure were primarily monocytes (>90%) as determined by esterase staining and flow cytometry using markers for monocytes, T cells, B cells, and NK cells. […]

CC1C(=O)OC2C(O)C34C5CC(C(C)(C)C)C36C(OC(=O)C6O)OC4(C(=O)O5)C12O (centres unmarked) [BN52021]
effect on TNF-α augmented production by PAF in monocytes (TNF-α [1]): blocks

C[C@@H]1C[C@@H]([C@H](O)CC2CC(=O)NC(=O)C2)C(=O)[C@@H](C)C1 [CHX, cycloheximide]
effect on BN52207 induced secretion of TNF-α (TNF-α [2]; FIG. 4): inhibited

CC[C@H]1CN2CCc3cc(OC)c(OC)cc3[C@@H]2C[C@@H]1C[C@H]1NCCc2cc(OC)c(OC)cc21 [emetine]
effect on BN52207 induced secretion of TNF-α (TNF-α [2]; FIG. 4): inhibited

CC(=O)CCCCn1c(=O)c2c(ncn2C)n(C)c1=O [pentoxifylline]
effect on BN enhanced stimulation of TNF-α secretion by LPS stimulated PBM (TNF-α [2]; PBM 18 hours, BN52207 (5 μg/ml) + LPS (1 μg/ml) + pentoxifylline (50 μg/ml), FIG. 4): inhibited

IFN-γ: recombinant interferon-γ, a gift from Genentech
TNF-α secretion on stimulation of PBM with IFN-γ alone (TNF-α [2]; IFN-γ (500 U/ml), 18 hours, FIG. 3A): results in the secretion of TNF-α
